# Experimental data taken from US20060258754A1, “Method of treating endothelial dysfunction, oxidative stress and related diseases” (priority 2004, published 2006).
# Test system: aortic rings
# Experiment: Acute incubation of diabetic rabbit aortic rings: acetylcholine relaxation
# Parameters: species or system alloxan-diabetic rabbits
# Settings: acute incubation 1 μM, medium and higher concentrations of acetyl choline, FIG. 7
# Experimental: Male California rabbits, weighing 2-2.5 kg, were provided by the vivarium of the Biomedicine Institute-UFC. Diabetes was induced by intraperitoneal injection of alloxan (150 mg/kg) and only animals with plasma glucose concentration above 200 mg/dl were included in the study. Age-matched euglycemic rabbits were used as controls.
# Kidneys and aortic rings are harvested from diabetic rabbits after 3 weeks of alloxan injection. They are perfused with KHS containing 1 μM D-chiro-inositol, pinitol, dibutyryl D-chiro-inositol, myo-inositol or saline for 1 hour. Dose response curves for acetylcholine are then performed following prior phenylephrine vasoconstriction as described. At least 6 separate experiments will be performed each in duplicate.
# Kidneys and aortic rings were harvested from diabetic rabbits after 3 weeks of alloxan injection. The animals were sacrificed under sodium pentobarbital anesthesia (Hypnol®, 150-200 mg/kg). […]. Rabbit kidneys were obtained from male New Zealand rabbits (1-1.5 kg) after cannulation of the renal artery in situ. […] The alterations in perfusion pressure are continuously recorded in a four-channel polygraph (Narco Biosystems, Houston, Tex., USA) by means of a pressure transducer (P23 Gould Stratham, Oxnard, Calif., USA). […]
structure (smiles),measurement,setting,value
"CCCC(=O)O[C@@H]1[C@@H](O)[C@@H](O)[C@H](O)[C@H](O)[C@H]1OC(=O)CCC [dbDCI, 3,4-dibutyryl-D-chiroinositol]",restoring vasorelaxant effect in aortic rings,,more effective than myoinositol
same,restoring vasorelaxant effect in aortic rings,listed as dibutyryl D-chiro-inositol,clearly more effective than myo-inositol
